Test results taken from patent US6362195B1, “Branched alkoxy-substituted 2-aminopyridines as NOS inhibitors” (Pfizer Inc., priority 1997, dated 2002).
Counter-ions that a name gives are not always drawn.

Row | SMILES | melting point
1 | CC(C)Oc1cc(C(O)CN2CCN(CCc3ccccc3)CC2)ccc1-c1cccc(N)n1 (centres unmarked) (as salt: hydrochloride) | 148 to 165 °C
2 | Nc1cccc(-c2ccc(CCN3CCN(CCc4ccccc4)CC3)cc2OC2CCCC2)n1 (as salt: hydrochloride) | > 200 °C
